Results published in paper PMC6934184, “Selective DNA-PKcs inhibition extends the therapeutic index of localized radiotherapy and chemotherapy” (The Journal of Clinical Investigation, 2019).

Molecular target: T1, STK23 (MSSK1) (Homo sapiens, UniProt Q9UPE1)
T1 construct: purchased Thermo Fisher Scientific (Life Technologies) SelectScreen
Experiment: SelectScreen Z'LYTE
Type: biochemical
In short: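 Percent values come from Thermo SelectScreen profiling of NU5455, combining activity and binding assays. CSF1R was run in Z'LYTE format at Km app ATP, and CAMK1 in Adapta format with ATP listed at 10.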

T1 sequence (Q9UPE1 whole entry): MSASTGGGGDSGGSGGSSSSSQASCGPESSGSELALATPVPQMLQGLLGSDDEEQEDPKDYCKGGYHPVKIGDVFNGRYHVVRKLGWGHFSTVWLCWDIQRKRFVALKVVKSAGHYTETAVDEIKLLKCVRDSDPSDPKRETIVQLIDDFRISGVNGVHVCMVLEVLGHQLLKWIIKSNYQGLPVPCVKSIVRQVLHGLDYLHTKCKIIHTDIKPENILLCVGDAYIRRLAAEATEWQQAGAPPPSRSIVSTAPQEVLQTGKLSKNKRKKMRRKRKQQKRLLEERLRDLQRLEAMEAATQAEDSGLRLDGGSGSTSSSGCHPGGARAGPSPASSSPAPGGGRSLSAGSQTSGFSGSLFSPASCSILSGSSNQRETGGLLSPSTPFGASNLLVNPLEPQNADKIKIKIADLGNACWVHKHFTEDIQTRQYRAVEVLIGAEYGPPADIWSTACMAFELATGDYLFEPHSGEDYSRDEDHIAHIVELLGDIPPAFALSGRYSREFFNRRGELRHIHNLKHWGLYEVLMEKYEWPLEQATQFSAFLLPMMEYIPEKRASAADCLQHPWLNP

In the case of `CN(C(=O)CN1CCOCC1)c1ccc2sc3c(-c4cccc5c(=O)cc(N6CC7CCC(C6)O7)oc45)cccc3c2c1` [NU5455], the inhibition at 1 µM was 2%.
